# In ChEMBL document CHEMBL3885861, “Open TG-GATES”:
# Organism: Rattus norvegicus
# Assay: Open TG-GATES - Regimen: Single
# Assay type: toxicity, organism-based, Sprague-Dawley
# Set-up: regimen Single, gender Male, age 6 weeks
# Details: in vivo, po, 0 mg/kg, route gavage, dose level Control; for APTT / Bas / Eos / Fbg / Hb / Ht / Lym / MCH / MCHC / MCV / Mono / Neu / PT / Plat / RBC / Ret / WBC: tissue Blood; for KIDNEY_L / KIDNEY_R / KIDNEY_TOTAL: tissue Kidney; for LIVER: tissue Liver; for A/G / ALP / ALT / AST / BUN / CRE / Ca / Cl / DBIL / GLC / IP / K / LDH / Na / PL / RALB / TBIL / TC / TG / TP / gamma-GTP: tissue Plasma
smiles,measurement,setting,value
CCc1oc2ccccc2c1C(=O)c1cc(Br)c(O)c(Br)c1 [BENZBROMARONE],TERMINAL_BW,3 h,217.1 g
same,APTT,3 h,17.3 s
same,Bas,3 h,0%
same,Eos,3 h,1%
same,Fbg,3 h,226.8 mg/dL
same,Hb,3 h,13.8 g/dL
same,Ht,3 h,40.9%
same,Lym,3 h,76.4%
same,MCH,3 h,22.2 pg
same,MCHC,3 h,33.8%
same,MCV,3 h,65.9 fL
same,Mono,3 h,7.4%
same,Neu,3 h,15.2%
same,PT,3 h,11.9 s
same,Plat,3 h,104.6 x10_4/uL
same,RBC,3 h,621.4 x10_4/ul
same,Ret,3 h,7.9%
same,WBC,3 h,127.8 x10_2/uL
same,KIDNEY_L,3 h,0.9 g
same,KIDNEY_R,3 h,0.9 g
same,KIDNEY_TOTAL,3 h,1.9 g
same,LIVER,3 h,10.1 g
same,A/G,3 h,2
same,ALP,3 h,745.6 IU/L
same,ALT,3 h,38.4 IU/L
same,AST,3 h,65.4 IU/L
same,BUN,3 h,12.2 mg/dL
same,CRE,3 h,0.6 mg/dL
same,Ca,3 h,10.8 mg/dL
same,Cl,3 h,104 meq/L
same,DBIL,3 h,0.046 mg/dL
same,GLC,3 h,191 mg/dL
same,IP,3 h,9.7 mg/dL
same,K,3 h,4.8 meq/L
same,LDH,3 h,81.6 IU/L
same,Na,3 h,138.8 meq/L
same,PL,3 h,143.6 mg/dL
same,RALB,3 h,3.8 g/dL
same,TBIL,3 h,0.3 mg/dL
same,TC,3 h,75 mg/dL
same,TG,3 h,84.2 mg/dL
same,TP,3 h,5.7 g/dL
same,gamma-GTP,3 h,1.8 IU/L
same,TERMINAL_BW,6 h,212.5 g
same,APTT,6 h,16 s
same,Bas,6 h,0%
same,Eos,6 h,1%
same,Fbg,6 h,230.2 mg/dL
same,Hb,6 h,14.1 g/dL
same,Ht,6 h,41.9%
same,Lym,6 h,79.8%
same,MCH,6 h,21.8 pg
same,MCHC,6 h,33.6%
same,MCV,6 h,65 fL
same,Mono,6 h,6.2%
same,Neu,6 h,13.6%
same,PT,6 h,12.2 s
same,Plat,6 h,103.2 x10_4/uL
same,RBC,6 h,645.6 x10_4/ul
same,Ret,6 h,7.9%
same,WBC,6 h,125.2 x10_2/uL
same,KIDNEY_L,6 h,1 g
same,KIDNEY_R,6 h,1 g
same,KIDNEY_TOTAL,6 h,2.1 g
same,LIVER,6 h,9.9 g
same,A/G,6 h,2
same,ALP,6 h,690.6 IU/L
same,ALT,6 h,28.2 IU/L
same,AST,6 h,57.4 IU/L
same,BUN,6 h,10.6 mg/dL
same,CRE,6 h,0.5 mg/dL
same,Ca,6 h,10.5 mg/dL
same,Cl,6 h,104.6 meq/L
same,DBIL,6 h,0.006 mg/dL
same,GLC,6 h,182.6 mg/dL
same,IP,6 h,9.7 mg/dL
same,K,6 h,5.2 meq/L
same,LDH,6 h,82.8 IU/L
same,Na,6 h,138.4 meq/L
same,PL,6 h,142.2 mg/dL
same,RALB,6 h,3.8 g/dL
same,TBIL,6 h,0.4 mg/dL
same,TC,6 h,72.4 mg/dL
same,TG,6 h,69.2 mg/dL
same,TP,6 h,5.7 g/dL
same,gamma-GTP,6 h,1.2 IU/L
same,TERMINAL_BW,9 h,208.2 g
same,APTT,9 h,16.2 s
same,Bas,9 h,0%
same,Eos,9 h,0.8%
same,Fbg,9 h,234.8 mg/dL
same,Hb,9 h,13.6 g/dL
same,Ht,9 h,40.6%
same,Lym,9 h,74.6%
same,MCH,9 h,21.6 pg
same,MCHC,9 h,33.5%
same,MCV,9 h,64.4 fL
same,Mono,9 h,5.2%
same,Neu,9 h,19.6%
same,PT,9 h,12.2 s
same,Plat,9 h,105.2 x10_4/uL
same,RBC,9 h,631 x10_4/ul
same,Ret,9 h,7.4%
same,WBC,9 h,95.5 x10_2/uL
same,KIDNEY_L,9 h,1 g
same,KIDNEY_R,9 h,1 g
same,KIDNEY_TOTAL,9 h,2 g
same,LIVER,9 h,9.1 g
same,A/G,9 h,1.9
same,ALP,9 h,623.4 IU/L
same,ALT,9 h,27 IU/L
same,AST,9 h,58.8 IU/L
same,BUN,9 h,11.2 mg/dL
same,CRE,9 h,0.6 mg/dL
same,Ca,9 h,10 mg/dL
same,Cl,9 h,105.2 meq/L
same,DBIL,9 h,0.008 mg/dL
same,GLC,9 h,181.2 mg/dL
same,IP,9 h,11 mg/dL
same,K,9 h,5 meq/L
same,LDH,9 h,86.8 IU/L
same,Na,9 h,139.4 meq/L
same,PL,9 h,126.4 mg/dL
same,RALB,9 h,3.8 g/dL
same,TBIL,9 h,0.3 mg/dL
same,TC,9 h,71.6 mg/dL
same,TG,9 h,42.8 mg/dL
same,TP,9 h,5.8 g/dL
same,gamma-GTP,9 h,1.2 IU/L
same,TERMINAL_BW,24 h,225.6 g
same,APTT,24 h,15.9 s
same,Bas,24 h,0%
same,Eos,24 h,1.2%
same,Fbg,24 h,220.2 mg/dL
same,Hb,24 h,13.9 g/dL
same,Ht,24 h,41.4%
same,Lym,24 h,75%
same,MCH,24 h,21.4 pg
same,MCHC,24 h,33.5%
same,MCV,24 h,63.7 fL
same,Mono,24 h,6.4%
same,Neu,24 h,17.4%
same,PT,24 h,11.9 s
same,Plat,24 h,115 x10_4/uL
same,RBC,24 h,650 x10_4/ul
same,Ret,24 h,7.2%
same,WBC,24 h,109 x10_2/uL
same,KIDNEY_L,24 h,1 g
same,KIDNEY_R,24 h,1 g
same,KIDNEY_TOTAL,24 h,2 g
same,LIVER,24 h,10.9 g
same,A/G,24 h,2.1
same,ALP,24 h,682.4 IU/L
same,ALT,24 h,32.2 IU/L
same,AST,24 h,61 IU/L
same,BUN,24 h,16.8 mg/dL
same,CRE,24 h,0.6 mg/dL
same,Ca,24 h,10.4 mg/dL
same,Cl,24 h,104.6 meq/L
same,DBIL,24 h,0.006 mg/dL
same,GLC,24 h,188.8 mg/dL
same,IP,24 h,7.8 mg/dL
same,K,24 h,5.3 meq/L
same,LDH,24 h,91.6 IU/L
same,Na,24 h,138.8 meq/L
same,PL,24 h,149.4 mg/dL
same,RALB,24 h,4 g/dL
same,TBIL,24 h,0.3 mg/dL
same,TC,24 h,81 mg/dL
same,TG,24 h,100.2 mg/dL
same,TP,24 h,5.9 g/dL
same,gamma-GTP,24 h,1 IU/L
